Assay results reported in publication PMC1874184 (Environmental Health Perspectives, 2005).
pIC50: −log10 of the molar value. Values after ≈ are worked out from the molar mass of the structure shown. “Also recorded” adds a separate entry of the source. Read-outs that look alike come from different tables or passages of the source.

Tests used:
Marisa cornuarietis [1] = test: Exposure series I: 6-month semistatic exposure of sexually mature snails at 22°C; type: in vivo
Marisa cornuarietis [2] = type: in vivo; conditions: for EC10 (95% confidence intervals), clutch production / EC10 (95% confidence intervals), egg production / NOEC, clutch production / NOEC, egg production: entire duration; for Oviduct malformations under co-exposure with BPA: 5 μg BPA/L plus 3 μg ICI 182,780/L or 10 μg tamoxifen/L
[3] = ref Heemken et al. 2001; Staples et al. 1998; cited from earlier work
[4] = cited from earlier work
[5] = tested on: aquatic organisms (vertebrates and invertebrates); conditions: ref Hirano et al. 2004, Ike et al. 2002; cited from earlier work
[6] = tested on: Japanese medaka (Oryzias latipes); conditions: ref Metcalfe et al. 2001; cited from earlier work
[7] = tested on: swordtails (Xiphophorus helleri); conditions: male fish; ref Kwak et al. 2001; cited from earlier work
Marisa cornuarietis [8] = conditions: ref Oehlmann et al. 2000; cited from earlier work
[9] = tested on: freshwater sponges (Heteromyenia sp.); conditions: ref Hill et al. (2002); cited from earlier work
Caenorhabditis elegans = conditions: ref Tominaga et al. (2003); cited from earlier work
C. riparius = conditions: freshly emerged midges, 1 to 3,000 μg/L; ref Hahn et al. (2002); cited from earlier work
Acartia tonsa = conditions: ref Andersen et al. (1999); cited from earlier work
Potamopyrgus antipodarum = conditions: exposure via sediments; ref Duft et al. (2003); cited from earlier work
vertebrate ER = conditions: ref Bolger et al. 1998; cited from earlier work
[10] = biological target: ER-like binding site (specific [3H]-E2 binding); test: Competitive displacement of specific [3H]-E2 binding in gonad cytosolic extracts; conditions: for pIC50: read-out: IC50, displacement of specific [3H]-E2 binding, 24 nM [3H]-E2, 18 hr incubation, n = 3; for Displacement activity / affinity for ER-like binding site (in words): 24 nM [3H]-E2
[11] = prespawning period (days 0–65), 22°C, based on measured BPA concentrations
[12] = prespawning period, 22°C, measured concentrations
[13] = 20°C, measured BPA concentrations
[14] = 27°C, measured BPA concentrations

SMILES: CC(C)(c1ccc(O)cc1)c1ccc(O)cc1 [BPA, 4,4′-isopropylidine diphenol]
- Cumulative clutch and egg production compared with SC (Marisa cornuarietis [1]; entire experiment, nominal BPA 0.1, 0.5 and 1 μg/L, PC 0.01 μg/L EE2, p < 0.05): significantly more
- Incidence of superfemales with oviduct malformations (Marisa cornuarietis [1]; nominal 0.05 μg/L BPA, 22°C): 1.2%
- Incidence of superfemales with oviduct malformations (Marisa cornuarietis [1]; nominal 0.1 μg/L BPA, 22°C): 0%
- Incidence of superfemales with oviduct malformations (Marisa cornuarietis [1]; nominal 0.25 μg/L BPA, 22°C): 2.0%
- Incidence of superfemales with oviduct malformations (Marisa cornuarietis [1]; nominal 0.5 μg/L BPA, 22°C): 3.1%
- Incidence of superfemales with oviduct malformations (Marisa cornuarietis [1]; nominal 1 μg/L BPA, 22°C): 3.2%
- EC10 (95% confidence intervals), clutch production (Marisa cornuarietis [1]; [11]): 14.6 (13.8–15.4) ng/L
- EC10 (95% confidence intervals), egg production (Marisa cornuarietis [1]; [11]): 13.9 (12.8–15.0) ng/L
- LOEC, clutch production (Marisa cornuarietis [1]; [12]): 48.3 ng/L
- LOEC, egg production (Marisa cornuarietis [1]; [12]): 48.3 ng/L
- NOEC, clutch production (Marisa cornuarietis [1]; [12]): 7.9 ng/L
- NOEC, egg production (Marisa cornuarietis [1]; [12]): 7.9 ng/L
- Imposex development (Marisa cornuarietis [1]; sexually mature snails, 22°C, ANOVA and Weir test p > 0.2): did not induce imposex development
- Imposex development (Marisa cornuarietis [2]; 20°C and 27°C, ANOVA and Weir test p > 0.5): did not induce imposex development
- Size of genital organs (penis pouch, penis sheath, penis) in males (Marisa cornuarietis [2]; 20°C or 27°C, with the exception of penis length at 20°C): did not affect
- EC10 (95% confidence intervals), clutch production (Marisa cornuarietis [2]; [13]): 18.0 (6.20–52.4) ng/L
- EC10 (95% confidence intervals), egg production (Marisa cornuarietis [2]; [13]): 14.8 (6.07–36.2) ng/L
- NOEC, clutch production (Marisa cornuarietis [2]; 20°C, measured concentrations): < 106 ng/L
- NOEC, egg production (Marisa cornuarietis [2]; 20°C, measured concentrations): < 106 ng/L
- LOEC, clutch production (Marisa cornuarietis [2]; 20°C, measured concentrations): 106 ng/L
- LOEC, egg production (Marisa cornuarietis [2]; 20°C, measured concentrations): 106 ng/L
- Incidence of superfemales with oviduct malformations (Marisa cornuarietis [2]; 20°C, nominal 0.25 μg/L BPA): 4.8
- Incidence of superfemales with oviduct malformations (Marisa cornuarietis [2]; 20°C, nominal 0.5 μg/L BPA): 8.0
- Incidence of superfemales with oviduct malformations (Marisa cornuarietis [2]; 20°C, nominal 1 μg/L BPA): 14.8
- Incidence of superfemales with oviduct malformations (Marisa cornuarietis [2]; 20°C, nominal 5 μg/L BPA): 11.5
- Mortality compared to SC (Marisa cornuarietis [2]; 20°C, 0.25, 0.5, 1 and 5 μg BPA/L, χ2 test): increased significantly
- Clutch and egg production compared with SC (Marisa cornuarietis [2]; 20°C, cumulative p < 0.01, per female p < 0.001): significantly more
- Penis length in males (Marisa cornuarietis [2]; 20°C, p < 0.01): significant decrease; also recorded: concentration-dependent reduction
- EC10 (95% confidence intervals), clutch production (Marisa cornuarietis [2]; [14]): 2090 (796–5,460) ng/L
- EC10 (95% confidence intervals), egg production (Marisa cornuarietis [2]; [14]): 998 (161–6,200) ng/L
- NOEC, clutch production (Marisa cornuarietis [2]; 27°C, measured concentrations): ≥ 1990 ng/L
- NOEC, egg production (Marisa cornuarietis [2]; 27°C, measured concentrations): 205 ng/L
- Clutch production compared with control (Marisa cornuarietis [2]; 27°C, groups exposed solely to BPA): none of the groups exposed solely to BPA produced significantly more clutches
- EC10, clutch production (Marisa cornuarietis [2]; [14]): 2.09 ng/mL (≈ 9.15 nM)
- EC10, egg production (Marisa cornuarietis [2]; [14]): 0.998 ng/mL (≈ 4.37 nM)
- LOEC, egg production (Marisa cornuarietis [2]; 27°C, measured concentrations): 436 ng/L
- Cumulative egg production compared with SC (Marisa cornuarietis [2]; 27°C, only at nominal 1 and 5 μg/L, p < 0.05): significant increase
- log KOW [3]: 2.20–3.82
- half-life (degradation) ([4]; in sewage treatment plants, ref Howard 1989): 28 days
- half-life (degradation) ([4]; in water, ref Dorn et al. 1987): 2.5 to 4 days
- 96-hr LC50 (median lethal concentration) [5]: 1000 to 20000 ng/mL
- Concentration inducing ovotestes (as low as) [6]: 10 ng/mL
- Concentration range inhibiting development of the sword [7]: 0.2 to 20 ng/mL
- Concentration inducing superfeminization syndrome (as low as) (Marisa cornuarietis [8]): 1 ng/mL
- Concentration completely inhibiting germination [9]: 80000 ng/mL
- Concentration range with significant reductions in growth rates [9]: 160 to 160000 ng/mL
- LC50 (Caenorhabditis elegans): > 100 µM
- Reduction of yolk protein contents (C. riparius): 20–25%
- Concentration with increase of egg production (Acartia tonsa): 20 μg BPA/L
- EC10, increase of embryo numbers in the brood pouch (superfemale response) (Potamopyrgus antipodarum): 0.22 μg BPA/kg
- Affinity to the vertebrate ER (in words) (vertebrate ER): weak affinity
- pIC50 [10]: 4.61

SMILES: C[C@]12CC[C@@H]3c4ccc(O)cc4CC[C@H]3[C@@H]1CC[C@@H]2O [E2]
- pIC50 [10]: 6.12

SMILES: C[C@]12CC[C@@H]3c4ccc(O)cc4C[C@@H](CCCCCCCCC[S+]([O-])CCCC(F)(F)C(F)(F)F)[C@H]3[C@@H]1CC[C@@H]2O (stereo partly shown) [ICI, ICI 182,780, reference compound]
- Imposex intensities compared to SC under co-exposure with BPA (Marisa cornuarietis [2]; 5 μg BPA/L plus 3 μg ICI 182,780/L, both temperatures, Weir test p < 0.05): imposex intensities increased
- Oviduct malformations under co-exposure with BPA (Marisa cornuarietis [2]; 20°C): No oviduct malformations

SMILES: C[C@]12CC[C@H]3[C@@H](CCC4=CC(=O)CC[C@@]43C)[C@@H]1CC[C@@H]2O [T, testosterone]
- Displacement activity / affinity for ER-like binding site (in words) [10]: only weak displacement activity

SMILES: CC/C(=C(\c1ccccc1)c1ccc(OCCN(C)C)cc1)c1ccccc1 [Tam, tamoxifen, reference compound]
- Oviduct malformations under co-exposure with BPA (Marisa cornuarietis [2]; 20°C): No oviduct malformations
- Displacement activity / affinity for ER-like binding site (in words) [10]: moderate affinity
